# In ChEMBL document CHEMBL5465560, “Selectivity Literature for EUbOPEN Chemogenomic Library” (2024):
# Assays:
# [1] = molecular target: Histone-lysine N-methyltransferase SUV39H2 (Homo sapiens) (UniProt Q9H5I1); test: Selectivity interaction (Methyltransferase screen (radiometric assays, panel of 8 PRMTs, 21 protein lysine methyltransferases, 3 DNA methyltransferases, and one RNA methyltransferase)) EUB0000272b SUV39H2
# [2] = molecular target: T1, Serine/threonine-protein kinase 3 (Homo sapiens) (UniProt Q13188); test: Selectivity interaction (KinomeScan (DiscoverX)) EUB0000229b STK3; settings: at 10 µM
# T1 sequence (whole entry): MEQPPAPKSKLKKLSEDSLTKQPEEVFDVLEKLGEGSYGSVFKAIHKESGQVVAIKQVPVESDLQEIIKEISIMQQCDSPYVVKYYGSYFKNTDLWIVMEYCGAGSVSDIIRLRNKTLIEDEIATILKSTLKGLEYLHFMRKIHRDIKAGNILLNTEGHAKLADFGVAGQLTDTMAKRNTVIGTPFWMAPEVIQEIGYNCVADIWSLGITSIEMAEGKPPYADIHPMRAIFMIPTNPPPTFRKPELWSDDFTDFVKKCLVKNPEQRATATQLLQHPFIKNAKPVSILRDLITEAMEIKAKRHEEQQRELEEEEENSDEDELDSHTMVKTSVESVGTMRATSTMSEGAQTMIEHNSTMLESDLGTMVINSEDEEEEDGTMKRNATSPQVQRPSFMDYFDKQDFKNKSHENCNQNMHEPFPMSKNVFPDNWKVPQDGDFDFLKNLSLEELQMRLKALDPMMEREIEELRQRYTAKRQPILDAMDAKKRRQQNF
# [3] = molecular target: T2, MAP kinase-activated protein kinase 5 (Homo sapiens) (UniProt Q8IW41); test: Selectivity interaction (KinomeScan (DiscoverX)) EUB0000655a MAPKAPK5; settings: at 10 µM
# T2 sequence (whole entry): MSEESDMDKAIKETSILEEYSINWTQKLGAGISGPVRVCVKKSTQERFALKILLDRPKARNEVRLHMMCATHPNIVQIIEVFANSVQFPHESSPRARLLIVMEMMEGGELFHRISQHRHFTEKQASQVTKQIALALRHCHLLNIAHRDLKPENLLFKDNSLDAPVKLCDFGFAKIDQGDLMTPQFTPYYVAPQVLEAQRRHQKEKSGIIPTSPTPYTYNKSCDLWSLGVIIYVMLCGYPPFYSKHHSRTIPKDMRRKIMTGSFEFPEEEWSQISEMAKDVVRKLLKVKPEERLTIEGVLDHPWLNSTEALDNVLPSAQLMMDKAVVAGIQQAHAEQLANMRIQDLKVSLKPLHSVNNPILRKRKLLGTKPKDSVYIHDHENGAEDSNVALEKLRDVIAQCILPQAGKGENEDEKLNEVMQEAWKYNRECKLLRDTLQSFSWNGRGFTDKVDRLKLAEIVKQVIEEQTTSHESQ
# [4] = molecular target: Serine/threonine-protein kinase MARK1 (Homo sapiens) (UniProt Q9P0L2); test: Selectivity interaction (KinomeScan (DiscoverX)) EUB0001079a MARK1; settings: at 1 µM
# Sequence of Serine/threonine-protein kinase MARK1 (Homo sapiens) (Q9P0L2 whole entry, looked up): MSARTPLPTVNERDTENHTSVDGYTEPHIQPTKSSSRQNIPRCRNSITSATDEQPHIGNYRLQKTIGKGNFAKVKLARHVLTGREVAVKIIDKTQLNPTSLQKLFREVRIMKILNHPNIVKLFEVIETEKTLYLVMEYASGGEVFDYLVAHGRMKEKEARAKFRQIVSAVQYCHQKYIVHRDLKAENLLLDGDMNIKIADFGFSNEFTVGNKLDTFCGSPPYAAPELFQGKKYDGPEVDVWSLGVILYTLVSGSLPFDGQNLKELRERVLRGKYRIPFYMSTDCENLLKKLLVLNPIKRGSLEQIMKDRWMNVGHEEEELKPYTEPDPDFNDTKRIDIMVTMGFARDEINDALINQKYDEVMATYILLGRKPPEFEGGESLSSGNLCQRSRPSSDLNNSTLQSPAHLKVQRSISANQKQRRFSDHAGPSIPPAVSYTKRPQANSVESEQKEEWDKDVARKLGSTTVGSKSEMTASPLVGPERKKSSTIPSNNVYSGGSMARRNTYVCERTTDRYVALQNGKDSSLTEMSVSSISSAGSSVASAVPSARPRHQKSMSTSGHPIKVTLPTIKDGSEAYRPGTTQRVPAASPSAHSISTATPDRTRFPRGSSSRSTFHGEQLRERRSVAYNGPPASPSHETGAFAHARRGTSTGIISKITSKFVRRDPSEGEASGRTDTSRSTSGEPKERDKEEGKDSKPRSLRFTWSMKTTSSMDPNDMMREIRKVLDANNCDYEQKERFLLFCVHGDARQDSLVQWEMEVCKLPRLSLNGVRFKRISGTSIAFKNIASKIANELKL
# [5] = molecular target: T3, Phosphatidylinositol 5-phosphate 4-kinase type-2 gamma (Homo sapiens) (UniProt Q8TBX8); test: Selectivity interaction (KinomeScan (DiscoverX)) EUB0000666a PIP4K2C; settings: at 10 µM
# T3 sequence (whole entry): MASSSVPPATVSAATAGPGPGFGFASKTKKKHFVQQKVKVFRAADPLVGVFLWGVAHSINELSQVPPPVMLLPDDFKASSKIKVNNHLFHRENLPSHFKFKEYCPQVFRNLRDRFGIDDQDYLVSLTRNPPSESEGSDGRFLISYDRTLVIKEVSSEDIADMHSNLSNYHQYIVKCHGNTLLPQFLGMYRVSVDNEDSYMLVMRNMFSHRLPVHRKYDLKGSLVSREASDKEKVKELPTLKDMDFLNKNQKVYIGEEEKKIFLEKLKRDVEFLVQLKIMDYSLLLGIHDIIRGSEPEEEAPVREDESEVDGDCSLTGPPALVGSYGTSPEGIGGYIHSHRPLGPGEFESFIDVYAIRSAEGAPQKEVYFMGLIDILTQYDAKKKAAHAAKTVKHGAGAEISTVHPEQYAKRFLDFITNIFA
# [6] = molecular target: Tyrosine-protein kinase Fyn (Homo sapiens) (UniProt P06241); test: Selectivity interaction (KinomeScan (DiscoverX)) EUB0000666a FYN; settings: at 10 µM
# Sequence of Tyrosine-protein kinase Fyn (Homo sapiens) (P06241 2-537 limits assumed): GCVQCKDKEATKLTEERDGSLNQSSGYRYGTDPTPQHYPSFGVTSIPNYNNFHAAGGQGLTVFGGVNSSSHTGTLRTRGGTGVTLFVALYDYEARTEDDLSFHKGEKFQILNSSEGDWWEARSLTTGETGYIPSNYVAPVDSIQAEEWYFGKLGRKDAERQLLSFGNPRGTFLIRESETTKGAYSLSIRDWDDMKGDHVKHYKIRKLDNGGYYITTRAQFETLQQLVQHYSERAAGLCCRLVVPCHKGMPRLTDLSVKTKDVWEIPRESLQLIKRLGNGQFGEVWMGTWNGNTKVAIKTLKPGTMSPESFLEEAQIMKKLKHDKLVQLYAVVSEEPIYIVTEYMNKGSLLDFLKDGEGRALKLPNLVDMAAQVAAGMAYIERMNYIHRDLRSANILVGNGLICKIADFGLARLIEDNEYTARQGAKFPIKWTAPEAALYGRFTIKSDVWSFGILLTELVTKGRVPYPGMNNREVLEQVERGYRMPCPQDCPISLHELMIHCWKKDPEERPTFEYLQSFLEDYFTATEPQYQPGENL
# [7] = molecular target: Serine/threonine-protein kinase Nek6 (Homo sapiens) (UniProt Q9HC98); test: Selectivity interaction (Kinase panel (Z-LYTE Assay)) EUB0001632a NEK6; settings: at 10 µM
# Sequence of Serine/threonine-protein kinase Nek6 (Homo sapiens) (Q9HC98 whole entry): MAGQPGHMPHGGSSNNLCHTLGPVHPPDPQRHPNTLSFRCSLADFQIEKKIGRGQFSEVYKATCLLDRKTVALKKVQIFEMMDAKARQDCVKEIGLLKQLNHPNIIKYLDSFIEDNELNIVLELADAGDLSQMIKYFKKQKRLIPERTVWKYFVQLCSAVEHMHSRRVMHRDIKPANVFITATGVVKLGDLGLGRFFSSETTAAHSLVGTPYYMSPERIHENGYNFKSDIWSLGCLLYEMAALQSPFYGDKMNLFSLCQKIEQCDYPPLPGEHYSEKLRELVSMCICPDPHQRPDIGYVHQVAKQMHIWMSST
# [8] = molecular target: T4, Histone-lysine N-methyltransferase SMYD3 (Homo sapiens) (UniProt Q9H7B4); test: Selectivity interaction (Transferase panel (protein, RNA, and DNA methyltransferases. and EP300 (acetyltransferase))) EUB0000270b SMYD3
# T4 sequence (whole entry): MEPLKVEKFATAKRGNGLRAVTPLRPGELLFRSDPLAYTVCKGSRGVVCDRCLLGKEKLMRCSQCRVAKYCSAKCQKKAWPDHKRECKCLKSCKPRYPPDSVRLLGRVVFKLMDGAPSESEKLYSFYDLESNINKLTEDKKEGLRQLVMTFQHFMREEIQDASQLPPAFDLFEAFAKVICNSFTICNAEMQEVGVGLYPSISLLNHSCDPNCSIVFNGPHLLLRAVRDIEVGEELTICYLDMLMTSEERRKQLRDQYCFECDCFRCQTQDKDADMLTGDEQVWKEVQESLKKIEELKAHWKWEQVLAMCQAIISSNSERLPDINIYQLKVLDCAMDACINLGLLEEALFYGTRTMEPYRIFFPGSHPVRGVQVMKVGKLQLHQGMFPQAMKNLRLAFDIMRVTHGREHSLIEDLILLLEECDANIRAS
# [9] = molecular target: Cyclin-dependent kinase 5/CDK5 activator 1 (Homo sapiens) (UniProt Q00535+Q15078); test: Selectivity interaction (Kinase panel (Invitrogen)) EUB0000639a CDK5; type: protein-complex assay; settings: at 200 nM
# Sequence of Cyclin-dependent kinase 5/CDK5 activator 1 (Homo sapiens) (Q00535 whole entry): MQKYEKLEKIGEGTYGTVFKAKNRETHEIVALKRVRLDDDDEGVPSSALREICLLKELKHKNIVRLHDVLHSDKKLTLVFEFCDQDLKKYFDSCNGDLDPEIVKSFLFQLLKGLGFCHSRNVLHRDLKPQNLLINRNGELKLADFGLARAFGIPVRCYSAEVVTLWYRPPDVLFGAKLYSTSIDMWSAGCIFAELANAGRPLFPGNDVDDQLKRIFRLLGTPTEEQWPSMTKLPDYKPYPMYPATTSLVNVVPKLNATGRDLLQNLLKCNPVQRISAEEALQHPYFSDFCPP
# Sequence of Cyclin-dependent kinase 5/CDK5 activator 1 (Homo sapiens) (Q15078 99-307 partner limits assumed): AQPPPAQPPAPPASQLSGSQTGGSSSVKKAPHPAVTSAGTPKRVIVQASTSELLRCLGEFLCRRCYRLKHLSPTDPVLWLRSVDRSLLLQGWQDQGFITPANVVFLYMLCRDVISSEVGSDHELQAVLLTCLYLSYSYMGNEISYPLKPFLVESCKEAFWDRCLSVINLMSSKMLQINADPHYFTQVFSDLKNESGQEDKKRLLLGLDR
# [10] = molecular target: SRSF protein kinase 2 (Homo sapiens) (UniProt P78362); test: Selectivity interaction (KinomeScan (DiscoverX)) EUB0000607a SRPK2; settings: at 10 µM
# [11] = molecular target: Serine/threonine-protein kinase B-raf (Homo sapiens) (UniProt P15056); test: Selectivity interaction (SelectScreen profiling (Invitrogen)) EUB0000607a BRAF; settings: at 2 µM
# Sequence of Serine/threonine-protein kinase B-raf (Homo sapiens) (P15056 whole entry): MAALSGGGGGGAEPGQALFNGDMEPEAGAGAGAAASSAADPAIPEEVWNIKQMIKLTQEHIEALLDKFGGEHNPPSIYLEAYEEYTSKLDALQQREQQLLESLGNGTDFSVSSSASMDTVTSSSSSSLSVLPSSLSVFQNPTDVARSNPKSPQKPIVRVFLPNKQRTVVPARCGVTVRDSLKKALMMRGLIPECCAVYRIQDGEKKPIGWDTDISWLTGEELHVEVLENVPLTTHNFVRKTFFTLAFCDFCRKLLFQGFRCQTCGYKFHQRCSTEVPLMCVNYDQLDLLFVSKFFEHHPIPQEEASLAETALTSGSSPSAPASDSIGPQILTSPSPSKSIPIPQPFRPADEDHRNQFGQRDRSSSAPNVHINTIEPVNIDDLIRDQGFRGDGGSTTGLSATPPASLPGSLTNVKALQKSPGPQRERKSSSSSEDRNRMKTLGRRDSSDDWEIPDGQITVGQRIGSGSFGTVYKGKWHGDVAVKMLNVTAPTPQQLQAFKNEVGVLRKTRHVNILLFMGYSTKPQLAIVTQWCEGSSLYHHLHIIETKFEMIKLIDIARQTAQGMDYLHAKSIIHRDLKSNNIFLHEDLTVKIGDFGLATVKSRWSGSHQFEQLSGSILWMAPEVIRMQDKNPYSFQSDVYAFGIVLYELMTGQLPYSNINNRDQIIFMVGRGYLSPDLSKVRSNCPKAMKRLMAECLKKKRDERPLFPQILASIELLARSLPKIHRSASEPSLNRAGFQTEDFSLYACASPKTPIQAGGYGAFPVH
# [12] = molecular target: Serine/threonine-protein kinase WNK3 (Homo sapiens) (UniProt Q9BYP7); test: Selectivity interaction (KinomeScan (DiscoverX)) EUB0000607a WNK3; settings: at 10 µM
# [13] = molecular target: Proto-oncogene tyrosine-protein kinase Src (Homo sapiens, UniProt P12931); test: Selectivity interaction (KinomeScan (DiscoverX)) EUB0001049a SRC; settings: at 1 µM
# [14] = molecular target: AP2-associated protein kinase 1 (Homo sapiens, UniProt Q2M2I8); test: Selectivity interaction (KinomeScan (DiscoverX)) EUB0000595a AAK1; settings: at 10 µM
# [15] = molecular target: Fibroblast growth factor receptor 3 (Homo sapiens, UniProt P22607); test: (§1) Selectivity interaction (KinomeScan (DiscoverX)) EUB0000045b FGFR3
# Sequence of Fibroblast growth factor receptor 3 (P22607 23-806 limits assumed): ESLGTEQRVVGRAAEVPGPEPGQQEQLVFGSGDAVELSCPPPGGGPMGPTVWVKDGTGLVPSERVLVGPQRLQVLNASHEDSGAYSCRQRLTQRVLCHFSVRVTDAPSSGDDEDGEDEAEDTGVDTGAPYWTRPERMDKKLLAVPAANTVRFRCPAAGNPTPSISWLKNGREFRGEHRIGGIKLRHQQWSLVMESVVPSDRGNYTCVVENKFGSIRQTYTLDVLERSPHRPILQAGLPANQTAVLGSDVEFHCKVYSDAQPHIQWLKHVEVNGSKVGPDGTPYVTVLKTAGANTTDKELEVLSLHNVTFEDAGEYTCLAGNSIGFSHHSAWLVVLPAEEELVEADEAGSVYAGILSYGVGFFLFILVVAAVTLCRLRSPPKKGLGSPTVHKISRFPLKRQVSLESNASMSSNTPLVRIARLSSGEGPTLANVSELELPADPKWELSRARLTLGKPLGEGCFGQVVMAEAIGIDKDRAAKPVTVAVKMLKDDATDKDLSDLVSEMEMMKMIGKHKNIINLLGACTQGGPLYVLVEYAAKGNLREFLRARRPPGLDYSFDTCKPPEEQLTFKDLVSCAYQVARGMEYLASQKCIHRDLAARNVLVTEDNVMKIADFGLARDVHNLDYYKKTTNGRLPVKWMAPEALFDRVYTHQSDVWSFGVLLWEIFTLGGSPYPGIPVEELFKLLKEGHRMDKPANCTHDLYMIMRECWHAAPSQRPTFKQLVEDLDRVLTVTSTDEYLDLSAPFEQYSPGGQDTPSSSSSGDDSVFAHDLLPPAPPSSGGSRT
# [16] = test system: Fibroblast growth factor receptor 3 (Homo sapiens), P22607 [G697C]; test: as §1
# Sequence of Fibroblast growth factor receptor 3 (Homo sapiens), P22607 [G697C] (P22607 whole entry G697C): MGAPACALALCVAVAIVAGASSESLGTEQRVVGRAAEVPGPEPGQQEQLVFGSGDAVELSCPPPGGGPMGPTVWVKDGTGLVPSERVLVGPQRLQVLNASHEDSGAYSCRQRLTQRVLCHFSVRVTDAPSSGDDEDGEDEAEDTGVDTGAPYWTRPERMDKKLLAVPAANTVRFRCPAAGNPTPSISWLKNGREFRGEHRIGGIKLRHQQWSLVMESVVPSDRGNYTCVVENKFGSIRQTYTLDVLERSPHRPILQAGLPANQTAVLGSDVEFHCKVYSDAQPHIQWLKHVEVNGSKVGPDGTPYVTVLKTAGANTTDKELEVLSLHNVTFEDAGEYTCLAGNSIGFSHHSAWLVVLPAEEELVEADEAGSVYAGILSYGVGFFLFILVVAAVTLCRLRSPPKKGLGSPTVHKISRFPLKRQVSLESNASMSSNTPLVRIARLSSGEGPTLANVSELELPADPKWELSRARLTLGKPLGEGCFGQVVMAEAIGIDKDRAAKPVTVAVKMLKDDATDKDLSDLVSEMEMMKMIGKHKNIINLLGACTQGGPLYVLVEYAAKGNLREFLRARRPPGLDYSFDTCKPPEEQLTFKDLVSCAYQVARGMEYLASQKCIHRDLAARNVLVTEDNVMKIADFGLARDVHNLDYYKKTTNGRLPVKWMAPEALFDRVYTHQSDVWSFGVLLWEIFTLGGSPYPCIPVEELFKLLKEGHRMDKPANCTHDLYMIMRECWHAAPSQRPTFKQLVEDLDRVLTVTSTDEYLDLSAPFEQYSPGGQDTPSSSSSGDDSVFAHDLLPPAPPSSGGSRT
# Sequence of Histone-lysine N-methyltransferase SUV39H2 (Homo sapiens) (Q9H5I1 whole entry): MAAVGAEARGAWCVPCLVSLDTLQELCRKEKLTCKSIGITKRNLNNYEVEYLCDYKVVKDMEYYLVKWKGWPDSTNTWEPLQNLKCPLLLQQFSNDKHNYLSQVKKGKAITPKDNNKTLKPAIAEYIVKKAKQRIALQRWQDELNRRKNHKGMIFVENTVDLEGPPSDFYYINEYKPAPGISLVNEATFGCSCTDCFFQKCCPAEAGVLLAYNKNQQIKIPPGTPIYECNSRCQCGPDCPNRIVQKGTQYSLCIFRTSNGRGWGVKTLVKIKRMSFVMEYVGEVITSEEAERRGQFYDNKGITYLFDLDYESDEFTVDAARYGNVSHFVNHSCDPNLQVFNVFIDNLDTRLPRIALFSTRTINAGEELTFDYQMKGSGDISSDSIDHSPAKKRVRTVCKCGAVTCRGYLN
smiles,measurement,setting,value
Cc1cc(C)cc([C@H]2c3cc(C)ccc3NC(=O)CN2C(=O)c2ccc(Br)s2)c1,% of activity,[1]; at 1 µM,99.7%
same,% of activity,[1]; at 10 µM,98%
COc1cc(N(C)c2ccnc3ccc(C(F)(F)F)cc23)cc(OC)c1OC,% binding,[2],93%
CN(C)CCOc1ccc(-c2nc(-c3ccncc3)c(-c3ccc4c(c3)CC/C4=N\O)[nH]2)cc1,% of control,[3],100%
Nc1cnc(N2CCc3cc(S(=O)(=O)Nc4c(F)cc(Cl)cc4F)cc(N4CCCC4=O)c32)nc1 [TP-020n],% of control,[4],76%
O=C(NOC[C@H](O)CO)c1ccc(F)c(F)c1Nc1ccc(I)cc1F,% of control,[5],100%
same,% of control,[6],64%
Cn1cc(-n2cnc3c(NCc4nc5cc(Cl)c(Cl)cc5[nH]4)nc(N4CCOCC4)nc32)cn1,% of control,[7],3.78%
Cc1cc(CN)cc(C)c1-c1ncn(C)c1-c1cncn1C,% activity,[8]; at 1 µM,> 90%
same,% activity,[8]; at 10 µM,> 80%
CC[C@@H]1[C@H](F)C(=O)N[C@@H]1COc1nccc2cc(C(N)=O)c(OC)cc12 [ZIMLOVISERTIB],% of inhibition,[9],4.16%
CNC(=O)Nc1ccc(-c2nc(N3CC4CCC(C3)O4)c3cnn(C4CCC5(CC4)OCCO5)c3n2)cc1,% of control,[10],90%
same,% of inhibition,[11],-16%
same,% of control,[12],100%
COc1cc(Nc2nc(C)cc(-c3cnn4nc(OC)ccc34)n2)cc(C(F)(F)F)c1,% of control,[13],100%
COCC(=O)NC/C=C/c1ccc2ncnc(Nc3ccc(Oc4ccc(C)nc4)c(C)c3)c2c1 [CP-724714],% of control,[14],100%
C=CC(=O)Nc1cc(-n2c(=O)ccc3cnc4ccc(-c5ccc(NS(C)(=O)=O)cc5)cc4c32)ccc1C,% of control,[15]; at 1 µM,100%
same,% of control,[15]; at 10 µM,100%
same,% of control,[16]; at 1 µM,26%
same,% of control,[16]; at 10 µM,96%
